Experimental data published in ChEMBL document CHEMBL1141129, “Glucosamine-glycerophospholipids that activate cell-matrix adhesion and migration” (2005).

Key:
Format in all cases: functional
MDCK = assay: Lethal dose for Proliferation of […] after 24 hr of treatment upon incubation for 6 h; conditions: Canis lupus familiaris, read-out: LD50 (the source's name)
HaCaT [1] = assay: Lethal dose for Proliferation of human HaCaT cells after 24 hr of treatment upon incubation for 24 h; conditions: for CC50: read-out: LD50 (the source's name)
HaCaT [2] = assay: Lethal dose for Proliferation of human HaCaT cells after 24 hr of treatment upon incubation for 6 h; conditions: read-out: LD50 (the source's name)

| SMILES | CC50 (MDCK) | CC50 (HaCaT [1]) | also measured |
| --- | --- | --- | --- |
| CCCCCCCCCCCCCCCCCCOCC(COP(=O)([O-])OCC[N+](C)(C)C)OC (stereo unspecified) [EDELFOSINE] | 90 µM |  |  |
| CCCCCCCCCCCCCCCCOP(=O)([O-])OCC[N+](C)(C)C [MILTEFOSINE] | 200 µM |  | LD10 (HaCaT [1]): 20 µmol/L |
| CCCCCCCCCCCCCCCCCCOC[C@H](COP(=O)([O-])OCC[N+](C)(C)C)OC1OC(O)C(O)C(O)C1NC1C(=O)C(C)=C(C)C1=O (stereo partly specified) |  | 5.5 µM |  |
| CCCCCCCCCCCCCCCCCCOC[C@H](COP(=O)([O-])OCC[N+](C)(C)C)OC1OC(O)C(O)C(O)C1N (stereo partly specified) |  | 30 µM |  |
| CCCCCCCCCCCCCCCCCCOC[C@H](COP(=O)([O-])OCC[N+](C)(C)C)O[C@@H]1O[C@H](CO)[C@@H](O)[C@H](O)[C@H]1O |  |  | CC50 (HaCaT [2]): 9 µM |
